According to patent US11203599B2, “Solid forms of an antiviral compound” (Gilead Pharmasset LLC, priority 2014, dated 2021):
Structures can show the parent of a compound that is named as a salt.

Key:
Assay type in all cases: physicochemical
[1] = Dynamic vapor sorption (DVS)
[2] = Water uptake of the desolvated form in contact with air (water by KF)
Experimental: (§1) The stable form screen of Compound I bis-HCl was performed using 20 solvents (5-10 volumes) in an attempt to discover all crystalline forms, as summarized in Table 2. Four crystalline solvates were discovered in the slurries, which utilized alcohols such as methanol, ethanol and 1-propanol. With ethanol, the initial precipitation was Compound I bis-HCl Form III solids; after stirring for two weeks, the solids became Compound I bis-HCl Form V. The shapes of these crystals appeared as needles, shown in FIG. 47. After vacuum drying, these solvates lost solvents easily and changed to Compound I bis-HCl Form VI. […] For example, Compound I bis-HCl Form VI contains 8.8% water by KF after drying the methanol solvate and contains 5.2% water after drying the ethanol solvate. Each form was characterized by XRPD, DSC and TGA (FIGS. 4-19). TGA and DSC analysis were conducted after the samples were dried at room temperature in vacuum oven for 1 hour.

[3] = Stable form screen of Compound I bis-HCl: solubility in solvents; settings: thermodynamic from solid
Experimental: as §1

## COC[C@H]1C[C@@H](c2ncc(-c3ccc4c(c3)COc3cc5c(ccc6nc([C@@H]7CC[C@H](C)N7C(=O)[C@@H](NC(=O)OC)C(C)C)[nH]c65)cc3-4)[nH]2)N(C(=O)[C@H](NC(=O)OC)c2ccccc2)C1 [Compound I D-tartrate Form II, methyl {(2S)-1-[(2S,5S)-2-(9-{2-[(2S,4S)-1-{(2R)-2-[(methoxycarbonyl)amino]-2-phenylacetyl}-4-(methoxymethyl)pyrrolidin-2-yl]-1H-imidazol-5-yl}-1,11-dihydroisochromeno[4′,3′:6,7]naphtho[1,2-d]imidazol-2-yl)-5-methylpyrrolidin-1-yl]-3-methyl-1-oxobutan-2-yl}carbamate D-tartrate]
[1]; between about 10-50% RH, FIG. 53
  Moisture uptake in DVS: about 7%

## COC[C@H]1C[C@@H](c2ncc(-c3ccc4c(c3)COc3cc5c(ccc6nc([C@@H]7CC[C@H](C)N7C(=O)[C@@H](NC(=O)OC)C(C)C)[nH]c65)cc3-4)[nH]2)N(C(=O)[C@H](NC(=O)OC)c2ccccc2)C1 [Compound I bis-HCl Form VI, methyl {(2S)-1-[(2S,5S)-2-(9-{2-[(2S,4S)-1-{(2R)-2-[(methoxycarbonyl)amino]-2-phenylacetyl}-4-(methoxymethyl)pyrrolidin-2-yl]-1H-imidazol-5-yl}-1,11-dihydroisochromeno[4′,3′:6,7]naphtho[1,2-d]imidazol-2-yl)-5-methylpyrrolidin-1-yl]-3-methyl-1-oxobutan-2-yl}carbamate bis-hydrochloride]
[2]; after drying the ethanol solvate
  Water by KF: 5.2%
[2]; after drying the methanol solvate
  Water by KF: 8.8%
[2]; desolvated form
  Water absorption in contact with air: absorbs water quickly
[1]; FIG. 19
  Hygroscopicity by DVS analysis: hygroscopic

## COC[C@H]1C[C@@H](c2ncc(-c3ccc4c(c3)COc3cc5c(ccc6nc([C@@H]7CC[C@H](C)N7C(=O)[C@@H](NC(=O)OC)C(C)C)[nH]c65)cc3-4)[nH]2)N(C(=O)[C@H](NC(=O)OC)c2ccccc2)C1 [Compound I bis-HCl, methyl {(2S)-1-[(2S,5 S)-2-(9-{2-[(2S,4S)-1-{(2R)-2-[(methoxycarbonyl)amino]-2-phenylacetyl}-4-(methoxymethyl)pyrrolidin-2-yl]-1H-imidazol-5-yl}-1,11-dihydroisochromeno[4′,3′:6,7]naphtho[1,2-d]imidazol-2-yl)-5-methylpyrrolidin-1-yl]-3-methyl-1-oxobutan-2-yl}carbamate bis-hydrochloride]
[3]; ethanol, organic solvent or mixture, solvent EtOH, initial Form III, final Form V
  solubility: 9000 µg/mL
[3]; ethanol/water, aqueous with cosolvent or surfactant or cyclodextrin, solvent EtOH/water, Solution
  solubility: > 20000 µg/mL
[3]; methanol, organic solvent or mixture, solvent MeOH, final form Compound I bis-HCl Form II
  solubility: 50000 µg/mL
[3]; organic solvent or mixture, solvent 1-Propanol, final form Compound I bis-HCl Form IV
  solubility: 9000 µg/mL
[3]; organic solvent or mixture, solvent 2-Butanol, Solution
  solubility: > 50000 µg/mL
[3]; organic solvent or mixture, solvent Acetone, Mesophase
  solubility: 6000 µg/mL
[3]; organic solvent or mixture, solvent DCM, Solution
  solubility: > 20000 µg/mL
[3]; organic solvent or mixture, solvent Ethyl acetate, Mesophase
  solubility: < 1000 µg/mL
[3]; organic solvent or mixture, solvent IPAc, Mesophase
  solubility: < 1000 µg/mL
[3]; organic solvent or mixture, solvent MIBK, Mesophase
  solubility: < 1000 µg/mL
[3]; organic solvent or mixture, solvent MTBE, Amorphous
  solubility: < 1000 µg/mL
[3]; organic solvent or mixture, solvent Toluene, Mesophase
  solubility: < 1000 µg/mL
[3]; organic solvent or mixture, solvent heptane, Amorphous
  solubility: < 1000 µg/mL
[3]; solvent Water, final form Amorphous
  solubility: < 1000 µg/mL
